Laboratory results taken from PubChem BioAssay AID2305 (GlaxoSmithKline (GSK), 2010).
Several values for one entry are separate records, joined by “and”; a condition that tells them apart may be missing. Equal values may be shown once.

tested on: P. falciparum 3D7 growth, pLDH absorbance; assay: P. falciparum 3D7 growth inhibition, dose response, strain 3D7 (AID 2305)

Row | Structure (SMILES) | IC50
1 | Cn1nc(C(F)(F)F)c(-c2ccc(F)cc2)c1NC(=O)Nc1ccccc1 | 800 nM
2 | O=C(NC1CCN(Cc2ccc(Cl)cc2)CC1)c1cn(-c2ccccc2)nc1-c1cccnc1 | 970 nM
3 | COc1ccc(CCNCCCCCCNCCc2ccc(Cl)c(Cl)c2)cc1OC | 930 nM
4 | COc1cc(NCCCNC(=O)c2ccc(Cl)c(Cl)c2)nc2ccccc12 | 140 nM
5 | NC(=NCCc1ccc(Cl)cc1)c1ccc(Cl)c(Cl)c1 | 1100 nM
6 | C(=NNc1ccnc2ccccc12)c1ccncc1 | 740 nM
7 | COc1ccc2ncc(F)c(C(O)CN3CCC(NCc4ccc5c(n4)NC(=O)CO5)CC3)c2c1 (centres undefined) | 1110 nM and 370 nM
8 | CC(C)(C)OC(=O)NCc1ccc(Nc2nnc(-c3ccc(OCC(=O)NC[C@@H]4CC[C@H]5C[C@@H]4C5(C)C)c([N+](=O)[O-])c3)o2)cc1 | 910 nM
9 | Cc1cc(OCC2CCCN(c3ncc(C(=O)NC4CC4)cc3Cl)C2)ccc1F (centres undefined) | 1490 nM
10 | CCCN(CCCCNC(=O)c1ccc(-c2cccnc2)cc1)C1CCc2c(O)cccc2C1 (centres undefined) | 1120 nM
11 | CC[C@H](C)CNC(=O)c1cncc(-c2cccc(CNC3Cc4ccccc4C3)c2)c1 | 590 nM
12 | COc1ccc(C=NNc2cc(C)nc3ccc(C)cc23)c2ccccc12 | 860 nM
13 | C[C@H](NC(=O)c1cc(-c2ccc(C(C)(C)C)cc2)no1)C(=O)O (tested in a mixture with another compound) | 140 nM
14 | CC(C)(C)NCCN(Cc1ccc(-c2ccc(C(F)(F)F)cc2)cc1)C(=O)Cn1c(CCc2cccc(F)c2F)nc(=O)c2c1CCC2 | 950 nM
15 | COc1ccccc1Nc1nc(C)cc(NCc2ccc(-c3c(C)noc3C)cc2)n1 | 870 nM
16 | CC(=O)c1cccc(NC(=O)N2CCCN(CCCCCNC(=O)/C=C/c3ccc(Cl)c(Cl)c3)CC2)c1 | 1010 nM
17 | CCc1ccc(N2C(=O)C3C(Cc4ccc(OC(C)(C)C)cc4)NC4(C(=O)N(Cc5ccccc5)c5ccc(F)cc54)C3C2=O)cc1 (centres undefined) | 800 nM
18 | O=C(/C=C/c1ccc(Cl)c(Cl)c1)NCCCCCN1CCC(NC(=S)Nc2cccc(Cl)c2)CC1 | 870 nM
19 | CC(CCCCC(=O)Nc1ccc(CC(C)NCCc2cccc(Cl)c2)cc1)NCCc1cccc(Cl)c1 (centres undefined) | 1010 nM
20 | CC(Cc1ccc(OCCOc2ccccc2)cc1)NCC(O)c1cccc(C(F)(F)F)c1 (centres undefined) | 970 nM
21 | CS(=O)(=O)c1ccc2nc(NC(=O)c3csnn3)sc2c1 | 670 nM
22 | Cn1nc(-c2cccc(CNCc3ccccc3)c2)c2cnc(NC3CCCC3)nc21 | 1260 nM
23 | Cn1nc(C(=O)N2CCC(c3[nH]ncc3Cc3ccccc3)CC2)c2ccccc2c1=O | 300 nM
24 | Oc1ccc(CN2Cc3ccccc3OC3(CCN(Cc4c[nH]c5cnccc45)CC3)C2)cc1 | 1170 nM
25 | NC(=O)c1cccc(Nc2nccc(Nc3ccc(Oc4cccc(Cl)c4)c(Cl)c3)n2)c1 | 1280 nM

Row | Structure (SMILES) | IC50
26 | CCCNC(=O)Nc1cc2cc(-c3ccc(CN4CCCC4)cc3)ccc2n2c(C)nnc12 | 1500 nM
27 | Cn1c(N)c(C(=O)CSc2nnc(-c3cccs3)n2Cc2ccccc2)c(=O)n(C)c1=O | 790 nM
28 | Cc1cc(C(F)(F)F)n2nc(C(=O)N(Cc3cncn3Cc3ccccc3F)CC3CC3)cc2n1 | 960 nM
29 | O=c1cc(NCCCNCc2ccc3c(c2)OC(F)(F)O3)[nH]c2ccccc12 | 770 nM
30 | COc1ccc(NC(=O)/C=C/c2ccccc2Cl)cc1OCCN1CCN(c2ccncc2)CC1 | 730 nM
31 | CC(=O)Nc1ccc(C(=O)Nc2ccc(-c3cccc(-c4nc5c(C)cccc5[nH]4)c3)cc2)cn1 | 260 nM
32 | CCOc1ccc2c(NN=Cc3cc(OC)c(OC)cc3OC)cc(C)nc2c1 | 1000 nM
33 | Cc1cc(=O)[nH]c(/N=C(/N)NOCc2ccccc2)n1 | 420 nM
34 | CCc1ccc(O)c(-c2cc(C(=O)Nc3ccc(OC)c(Cl)c3)[nH]n2)c1 | 870 nM
35 | COCc1nc(N)nc(N)c1-c1ccc(Cl)c(Cl)c1 | 1020 nM
36 | COc1cc(OC)cc(C(=O)Nc2cccc(-c3cn4ccc(C)cc4n3)c2)c1 | 990 nM
37 | CC(C)(C)c1ccc(CN2CCC(NC(=O)c3ccc(-c4ccccc4F)s3)CC2)cc1 | 1200 nM
38 | O=c1cc(NCC2(CNCc3cn(Cc4ccccc4)c4ccccc34)CCCCC2)[nH]c2ccccc12 | 680 nM
39 | CN(c1cc(NC(=O)c2ccccc2)ccn1)C1CCN(Cc2cccc(F)c2)CC1 | 740 nM
40 | CCc1cc(N2CCN(c3ccccc3F)CC2)nc(SCc2ccc(C(=O)NC3CC3)o2)n1 | 890 nM
41 | Cc1cccc2[nH]c(-c3cccc(-c4cccc(NC(=O)CC5NC(=O)c6ccccc65)c4)c3)nc12 (centres undefined) | 1030 nM
42 | COCCNCc1ccc(-c2ccc3c(Nc4ccc(Cl)cc4F)ccnc3c2)o1 | 210 nM
43 | COc1ccc2nc(C)cc(NN=Cc3cccc(F)c3)c2c1 | 290 nM
44 | NCCCN(Cc1ccc(Cl)c(Cl)c1)C(=O)Nc1ccc(Cl)c(Cl)c1 | 900 nM
45 | COc1cc(-n2cnc3cc(-c4ccc(Cl)cc4)sc3c2=O)ccc1OCCN1CCC(c2cccc(NC(C)=O)c2)CC1 | 550 nM
46 | Cc1ccc(NC(=O)c2ccc(-c3cc4cc(Cl)c(Cl)cc4[nH]3)cc2)cc1OCCN1CCCC1 | 990 nM
47 | O=C(/C=C/c1ccc(Cl)c(Cl)c1)NCCCCN1CCC(c2c[nH]c3ccccc23)CC1 | 860 nM
48 | CC(=O)C1(c2ccccc2)CCN(CCC2(c3ccc(Cl)c(Cl)c3)CN(C(=O)c3cccc(Cl)c3)CCO2)CC1 (centres undefined) | 850 nM
49 | O=C(NCC1CCN(Cc2ccsc2)C1)c1cc(-c2cccc(C(F)(F)F)c2)cs1 (centres undefined) | 700 nM
